Assay results published in ChEMBL document CHEMBL1124830, “Synthesis, brain uptake, and pharmacological properties of a glyceryl lipid containing GABA and the GABA-T inhibitor gamma-vinyl-GABA” (J Med Chem, 1990).

Legend:
[1] = Partition coefficient of the compound; type: ADME; details: octanol/water
[2] = Brain penetration index calculated as ([Brain]/[Liver])x100 @ 5 min after sc administration in mice at 3-39 mg/kg; type: functional
[3] = species on record: Mus musculus; details: 3-39 mg/kg
[4] = species on record: Mus musculus; details: Liver
[5] = tested on: Mus musculus; test: Concentration of brain in mice after sc administration at 33 mg/kg; type: functional, organism-based; set-up: dose 33 mg/kg
[6] = species on record: Mus musculus; test: Dose required to produce a 50% reduction in general motor activity after injection in mice; type: functional
[7] = species on record: Rattus norvegicus; test: Inhibitory concentration that suppress the CA1 population spike in rat hippocampus slices; type: functional, organism-based
[8] = Brain penetration index calculated as ([Brain]/[Liver])x100 @ 5 min after sc administration in mice at 33 mg/kg; type: functional; details: route subcutaneous
[9] = tested on: Mus musculus; test: Concentration of liver in mice after sc administration at 33 mg/kg; type: functional, organism-based; set-up: dose 33 mg/kg

Row | Partition coefficient [1] | IC50 [7] | Compound | BPI [2] | Concentration (nM (g of tissue)-1) [3] | Concentration (nM (g of tissue)-1) [4] | Concentration (nM (g of tissue)-1) [5] | Dose [6] | BPI [8] | Concentration (nM (g of tissue)-1) [9]
1 | 0.004 | – | NCCCC(=O)O [GAMMA-AMINOBUTYRIC ACID] | 1 | 0.04 | 4.17 | – | – | – | –
2 | 1.76 | 800 µM | C=CC(N)CCC(=O)OCC(COC(=O)CCCCCCC/C=C\C/C=C\C/C=C\CC)OC(=O)CCCN (stereo unspecified) | – | – | – | 8.34 | 25 µM/kg | 97 | 8.94
3 | – | – | C=CC(N)CCC(=O)O (stereo unspecified) [VIGABATRIN] | – | – | – | – | 9000 µM/kg | – | –
